Laboratory results from patent publication US20210361598A1, “COMPOUNDS FOR PREVENTION AND TREATMENT OF POST-INTENSIVE CARE COGNITIVE DYSFUNCTION AND COGNITIVE DYSFUNCTION RESULTING FROM RESPIRATORY DISTRESS” (Abrexa Pharmaceuticals, Inc., priority 2020, published 2021).
Entries after “also recorded” stand apart in the source; their conditions may differ.

What was measured:
[1] = tested on: post-surgical cognitive dysfunction; conditions: cited from earlier work; for Effect on post-surgical cognitive dysfunction: literature reports, after surgery
[2] = tested on: neonatal hypoxic-ischemic brain injury in p10 C57BL6 mice; assay: Neural precursor marker fluorescence staining in HI mice; assay type: in vivo, mouse
[3] = tested on: neonatal hypoxic-ischemia (HI) in mice; assay: NeuN+ area and TUNEL+ cell count in hippocampus of HI mice
Procedure: Neonatal hypoxic-ischemia (HI) was performed at P10 and daily 10 μg/g J147 was gavage-fed from P10 to P14.

[4] = tested on: neonatal hypoxic-ischemic encephalopathy (HIE) in C57BL6 mice; assay: TUNEL staining, dose dependency of apoptotic cell death in dentate gyrus, neonatal HIE mouse model; assay type: in vivo; conditions: n=6, HIE untreated 141.7+56.6
Procedure: C57BL6 mice were subjected to complete unilateral carotid blockage using cauterizer at P10 followed by 45 min hypoxic exposure at 8% O2, and this was followed by daily oral gavage delivery of J147 in a range of doses or vehicle at P10-P14. Then animals were sacrificed and processed for TUNEL staining. In sham group, very few TUNEL+ cells are observed in dentate gyrus (DG, 4.7+4.1/each). […] For 10 μg/g/day group and 25 μg/g/day group, 42.2+23 (p<0.001) and 31.7+21.4 (p<0.001) cells are found in DG (One-way ANOVA; n=6).

[5] = tested on: neonatal hypoxic-ischemic brain injury in p10 C57BL6 mice; assay: Rotarod test in HI mice; assay type: in vivo, mouse; conditions: 5 weeks after HI
Procedure: (§1) Postnatal day 10 mice were subjected to the modified Vanucci-Rice model of neonatal hypoxic-ischemic injury (permanent right common carotid artery ligation followed by 8% oxygen/balance nitrogen exposure) and then treatment started the same day by daily oral gavage with J147 at 10 mg/kg/day for 2 weeks after injury. Infarction volume, performance on functional tests of coordination, locomotion and memory, markers of neurogenesis, and apoptotic cell death were measured. Hypoxic-ischemic (HI) injury and J147 treatment: To induce HI injury, permanent right common carotid artery ligation was performed in p10 C57BL6 mice followed by 8% oxygen/balance nitrogen exposure for 45 min at 37° C. hypoxic chamber. From the day of HI injury, either J147 (10 mg/kg/day) or vehicle (corn oil, same volume) were once daily administered through oral gavage for a period of two weeks. […]

[6] = tested on: neonatal hypoxic-ischemic brain injury in p10 C57BL6 mice; assay: Postmortem MRI volumetric measurement of lesion in neonatal HI mouse model; assay type: in vivo
Procedure: Postnatal day 10 mice were subjected to the modified Vanucci-Rice model of neonatal hypoxic-ischemic injury (permanent right common carotid artery ligation followed by 8% oxygen/balance nitrogen exposure) and then treatment started the same day by daily oral gavage with J147 at 10 mg/kg/day for 2 weeks after injury. Infarction volume, performance on functional tests of coordination, locomotion and memory, markers of neurogenesis, and apoptotic cell death were measured. Hypoxic-ischemic (HI) injury and J147 treatment: To induce HI injury, permanent right common carotid artery ligation was performed in p10 C57BL6 mice followed by 8% oxygen/balance nitrogen exposure for 45 min at 37° C. hypoxic chamber. From the day of HI injury, either J147 (10 mg/kg/day) or vehicle (corn oil, same volume) were once daily administered through oral gavage for a period of two weeks. Magnetic resonance imaging (MRI): […] A 3D rapid acquisition with refocused echoes sequence was used (TE/TR=40/2000 ms, RARE factor=8, 4 signal averages, FOV=16.0 mm×9.0 mm×18.0 mm, matrix size=128×72×144, native resolution≈125×125×125 um3, time=3 h). Volumetric measurements were performed using ROI editor software.

[7] = tested on: neonatal hypoxic-ischemic brain injury in p10 C57BL6 mice; assay: Y-maze spontaneous alternation test in HI mice; assay type: in vivo, mouse; conditions: 50 days after HI; p<0.001
Procedure: as §1

[8] = tested on: neonatal hypoxic-ischemic brain injury in p10 C57BL6 mice; assay: TTC staining infarct measurement in neonatal hypoxic-ischemic (HI) injury mouse model; assay type: in vivo
Procedure: Postnatal day 10 mice were subjected to the modified Vanucci-Rice model of neonatal hypoxic-ischemic injury (permanent right common carotid artery ligation followed by 8% oxygen/balance nitrogen exposure) and then treatment started the same day by daily oral gavage with J147 at 10 mg/kg/day for 2 weeks after injury. Infarction volume, performance on functional tests of coordination, locomotion and memory, markers of neurogenesis, and apoptotic cell death were measured. Hypoxic-ischemic (HI) injury and J147 treatment: To induce HI injury, permanent right common carotid artery ligation was performed in p10 C57BL6 mice followed by 8% oxygen/balance nitrogen exposure for 45 min at 37° C. hypoxic chamber. From the day of HI injury, either J147 (10 mg/kg/day) or vehicle (corn oil, same volume) were once daily administered through oral gavage for a period of two weeks. TTC staining: 24 h after HI injury, 2 mm coronal brain sections were immersed in 1% 2,3,5-Triphenyltetrazolium chloride (TTC) at 37° C. for 30 min. Images of individual sections were digitized and infarct area was measured with the ImageJ software. Injury volumes were calculated using [contralateral hemisphere volume-(ipsilateral hemisphere volume-lesion volume)]/contralateral hemisphere volume×100.

[9] = tested on: neonatal hypoxic-ischemic brain injury in p10 C57BL6 mice; assay: Open field test in HI mice; assay type: in vivo, mouse; conditions: 4 days post HI
Procedure: as §1

For `Cc1cccc([C@H](C)c2cnc[nH]2)c1C` [Dexmedetomidine], the “Effect on post-surgical cognitive dysfunction” value [1] is listed as “failed to show efficacy”.
In the case of `COc1cccc(/C=N/N(C(=O)C(F)(F)F)c2ccc(C)cc2C)c1` [J147], the Tbr2-positive cells ([2]; at one week after injury) is reported as “significant increase”, the Nestin-positive cells ([2]; one day and one week after injury) is reported as “increased” and the “NeuN+ area in hippocampus” value ([3]; HI+J147, daily 10 μg/g gavage P10 to P14, SH 0.52, HI 0.32, p=0.0433) is reported as 0.45 mm2/section. The “TUNEL+ apoptotic cells in hippocampus” value ([3]; HI+J147, daily 10 μg/g gavage P10 to P14, SH 36.33, HI 372.67, p=0.0092) was 208.17 /section, the “Reduction in apoptotic cell death in the hippocampus” value ([3]; J147 treatment, summary) was “roughly 50%” and the “TUNEL+ cells in dentate gyrus” value ([4]; 0.5 μg/g/day oral gavage P10-P14, p>0.05) was 123.2+51.5 cells. The “TUNEL+ cells in dentate gyrus” value ([4]; 1 μg/g/day oral gavage P10-P14, p>0.05) was 107.8+42.7 cells, the “TUNEL+ cells in dentate gyrus” value ([4]; 5 μg/g/day oral gavage P10-P14, p<0.01) was 55+23.6 cells and the “TUNEL+ cells in dentate gyrus” value ([4]; 10 μg/g/day oral gavage P10-P14, p<0.001) was 42.2+23 cells. The “TUNEL+ cells in dentate gyrus” value ([4]; 25 μg/g/day oral gavage P10-P14, p<0.001) was 31.7+21.4 cells, the “Performance in the rotarod test” value [5] was “significant improvement” and the “Rotarod test performance, improvement” value ([5]; chronic, J147 treatment group) was “about 25%”. For the same compound, the “Ipsilateral hemisphere volume as percentage of contralateral hemisphere volume by MRI, area of brain injury (FIG. 3)” value ([6]; 50 days after hypoxia-ischemia injury, J147 10 mg/kg/day for 2 weeks, 10 mg/kg/day) was “reduced lesion size; also recorded: substantial reduction of effect compared with HI; also recorded: almost entirely reduces the area of brain injury”, the “MRI reduction in infarction volume, HIJ mice compared with untreated HI mice” value ([6]; MRI measurements at 50 days) was about 50% and the “MRI imaging reduction in lesion size” value ([6]; adult mice, two weeks of J147 treatment 10 mg/kg/day oral gavage, p<0.001) was 88%. The “Y-maze spatial learning task, improvement compared to HI controls” value [7] was 33%, the “Area of brain injury / lesion size by TTC staining (FIG. 2)” value ([8]; 24 hours after HI injury, J147 10 mg/kg/day oral gavage, 10 mg/kg/day) was “reduced lesion size; also recorded: reduced areal extent of injury; also recorded: significantly reduces the area of brain injury” and the “Infarct size as measured by TTC staining, reduction relative to HI controls” value ([8]; one day of J147 treatment, 10 mg/kg/day oral gavage, 24 h after HI injury, p<0.001) was 48%. The “Performance in the open field test” value [9] was “significant improvement” and the “Open field test performance, improvement” value ([9]; J147 treatment group) was “about 25%”.
In the case of `[Mg+2]` [Magnesium], the “Effect on post-surgical cognitive dysfunction” value [1] is listed as “failed to reduce post-surgical cognitive dysfunction”.
For `CCN(C)C(=O)Oc1cccc([C@H](C)N(C)C)c1` [Rivastigmine], the “Safety in seriously ill patients after surgery” value ([1]; clinical investigation NCT00835159, terminated) is given as “too dangerous” and the “Effect on post-surgical cognitive dysfunction” value [1] is given as “no efficacy was observed”.
For `COc1cc2c(cc1OC)C(=O)C(CC1CCN(Cc3ccccc3)CC1)C2` (stereo not shown) [donepezil], the “Effect on the overall cognitive index” value ([1]; patients with cognitive decline one year after cardiac surgery) is given as “had no effect”.
